Experimental data taken from ChEMBL document CHEMBL1201862, “PubChem BioAssay data set” (2004).
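Exposure lasted 48 hours, with cells grown in 96-well plates and compounds tested at five concentrations. The concentration for 50% growth inhibition is given as GI50.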 Calls of active or inactive are those of the source. Cut-off read from the data, not from the text of the source: active = GI50 up to about 1.1 µM and inactive = higher.

Experiments:
Experiment in all cases: NCI-60 cell line screen, 48 h
SK-OV-3 = test system: SK-OV-3
HOP-92 = test system: HOP-92
SK-MEL-5 = test system: SK-MEL-5
SNB-75 = test system: SNB-75
MOLT-4 = test system: MOLT-4
OVCAR-4 = test system: OVCAR-4
NCI-H460 = test system: NCI-H460
RPMI-8226 = test system: RPMI-8226
NCI-H23 = test system: NCI-H23
PC-3 = test system: PC-3
A498 = test system: A498
HCT-15 = test system: HCT-15
K562 = test system: K562
NCI-H226 = test system: NCI-H226
KM12 = test system: KM12
RXF 393 = test system: RXF 393
LOX IMVI = test system: LOX IMVI
Malme-3M = test system: Malme-3M
DU-145 = test system: DU-145
NCI-H522 = test system: NCI-H522

| SMILES | GI50 (SK-OV-3) | GI50 (HOP-92) | GI50 (SK-MEL-5) | GI50 (SNB-75) | GI50 (MOLT-4) | GI50 (OVCAR-4) | GI50 (NCI-H460) | GI50 (RPMI-8226) | GI50 (NCI-H23) | GI50 (PC-3) | GI50 (A498) | GI50 (HCT-15) [µM] | GI50 (K562) | GI50 (NCI-H226) | GI50 (KM12) | GI50 (RXF 393) | GI50 (LOX IMVI) | GI50 (Malme-3M) | GI50 (DU-145) | GI50 (NCI-H522) |
| --- | --- | --- | --- | --- | --- | --- | --- | --- | --- | --- | --- | --- | --- | --- | --- | --- | --- | --- | --- | --- |
| Cc1ccc(S(=O)(=O)Nc2ccccc2C=O)cc1 | 26.8 µM (inactive) | 2.35 µM (inactive) | 11.9 µM (inactive) | 18.3 µM (inactive) | 11.9 µM (inactive) | 16.4 µM (inactive) | 19.8 µM (inactive) | 5.62 µM (inactive) | 14.7 µM (inactive) | 11.4 µM (inactive) | 30 µM (inactive) | 7.4 | 8.15 µM (inactive) | 14.6 µM (inactive) | 16.1 µM (inactive) | 25.6 µM (inactive) | 13.8 µM (inactive) | 14.7 µM (inactive) | 26.1 µM (inactive) | 29 µM (inactive) |
| Cc1nn(-c2ccccc2)c2c1C(c1cc3ccccc3nc1Cl)NC(=S)N2 (stereo not given) | 97.5 µM (inactive) | 18.2 µM (inactive) | 58.6 µM (inactive) | 82.2 µM (inactive) | 29.4 µM (inactive) | 65.3 µM (inactive) | > 100 µM (inactive) | 20.7 µM (inactive) | 67.3 µM (inactive) | 67.1 µM (inactive) | 71 µM (inactive) | 31.8 | 39.5 µM (inactive) | > 100 µM (inactive) | 30.7 µM (inactive) | 26.3 µM (inactive) | 22.6 µM (inactive) | > 100 µM (inactive) | > 100 µM (inactive) | 14.3 µM (inactive) |
| O=C1NCC(NC(=O)C(F)(F)F)c2c(Br)sc(Br)c21 (stereo not given) | > 100 µM (inactive) | > 100 µM (inactive) | > 100 µM (inactive) | 24.3 µM (inactive) | > 100 µM (inactive) | > 100 µM (inactive) | > 100 µM (inactive) | > 100 µM (inactive) | > 100 µM (inactive) | > 100 µM (inactive) | > 100 µM (inactive) | > 100 | > 100 µM (inactive) | > 100 µM (inactive) | > 100 µM (inactive) | > 100 µM (inactive) | > 100 µM (inactive) | > 100 µM (inactive) | > 100 µM (inactive) | > 100 µM (inactive) |
| O=P1(c2ccccc2)C(c2ccccc2)=CC=C1c1ccccc1 | 59.4 µM (inactive) | 12.1 µM (inactive) | 6.24 µM (inactive) | 20.7 µM (inactive) | 6.65 µM (inactive) | 10.6 µM (inactive) | 11.6 µM (inactive) | 3.31 µM (inactive) | 21.5 µM (inactive) | 15.3 µM (inactive) | 16.8 µM (inactive) | 16 | 3.95 µM (inactive) | 26.4 µM (inactive) | 16.7 µM (inactive) | 29.9 µM (inactive) | 10.4 µM (inactive) | 27.3 µM (inactive) | 41.8 µM (inactive) | 20 µM (inactive) |
| c1cc2nnc1SCCSCCSc1ccc(nn1)SCCSCCS2 | > 100 µM (inactive) | > 100 µM (inactive) | > 100 µM (inactive) | 18.5 µM (inactive) | > 100 µM (inactive) | > 100 µM (inactive) | > 100 µM (inactive) | > 100 µM (inactive) | > 100 µM (inactive) | > 100 µM (inactive) | > 100 µM (inactive) | > 100 | > 100 µM (inactive) | > 100 µM (inactive) | > 100 µM (inactive) | > 100 µM (inactive) | > 100 µM (inactive) | > 100 µM (inactive) | > 100 µM (inactive) | > 100 µM (inactive) |
| O=C(O)CNCc1c2ccccc2nc2ccccc12 | > 76.4 µM (inactive) | 15.6 µM (inactive) | 25.7 µM (inactive) | 32.8 µM (inactive) | 6.27 µM (inactive) | 31.7 µM (inactive) | 39.2 µM (inactive) | 8.43 µM (inactive) | 35.6 µM (inactive) | 27.2 µM (inactive) | 66.1 µM (inactive) | 34.4 | 8.85 µM (inactive) | 52.1 µM (inactive) | 32.3 µM (inactive) | 32.4 µM (inactive) | 28.3 µM (inactive) | > 74.5 µM (inactive) | > 100 µM (inactive) | 22 µM (inactive) |
